These are literature values, as cited in US20260069581A1, “METHODS AND COMPOSITIONS FOR CANCER THERAPY” (OHIO STATE INNOVATION FOUNDATION, priority 2020, published 2026).

The subject of series [1] is cell lines derived from T-cell lymphomas or leukemias. Particulars: Ref. 25, cited from earlier work.
The test system of a further series is tubulin acetylation. Particulars: concentration as high as 50 μM, Ref. 25; cited from earlier work.
In another series the test system is AML. The following applies: low micromolar doses, Ref. 25; cited from earlier work.
The test system of series [2] is prostate cancer and lung adenocarcinoma cells. The following applies: Ref. 32; cited from earlier work.
In the next series the test system is Rad51. The following applies: Ref. 33; cited from earlier work.

In the case of `COc1ccc(Cn2ccc3ccc(C(=O)NO)cc32)cc1` [PCI-34051], the apoptosis entry in series [1] is listed as “induces caspase-dependent apoptosis”. Moreover, in series [1] (cell lines derived from T-cell lymphomas or leukemias), the GI50 was 2.4 to 4 µM. Besides, the tubulin acetylation result in the series on tubulin acetylation is on record as “did not induce significant tubulin acetylation”. For the same molecule, in the series with AML, the AML death entry is given as “failed to induce AML death”.
Consider `O=C(CCCCCCC(=O)Nc1ccccc1)NO` [vorinostat], for which the “Rad50 and MRE11 protein levels” value in series [2] was “downregulates”.
On to `CN(C)Cc1c(C(=O)NCCOc2ccc(C(=O)NO)cc2)oc2ccccc12` [PCI-2481], for which the Rad51 expression entry in the series with Rad51 is “reduction of Rad51 expression”.

For orientation: GI50 means the concentration at which growth is held to half of that of the control.
